Molecules are shown by their SMILES.

The nature of the data set: physchem. The note with it: octanol/water.

As to `COc1cccc2c1S(=O)(=O)C(C)C(c1ccc(OCCCN3CCCC3)cc1)O2` (configuration not stated), the logD stood at 2.2.
`C[C@@H]1CCCN1CCc1ccc2nc(-c3cc(Br)no3)ccc2c1` came in with a logD of 3.4.
In the case of `COc1ccc(-c2cc3sc(N4CCC(N5CCCCC5)CC4)nc3cn2)cn1` it was 1.6; in that of `C[C@@H]1CCCN1CCc1ccc2nc(C3CC3)ccc2c1`, 2.7; in that of `C[C@@H]1CCCN1CCc1ccc(-c2ccc(S(N)(=O)=O)cc2)cc1`, 1.8.
In the case of `Cc1ccc(-c2cnc3nc(N4CCC(N5CCCCC5)CC4)sc3c2)cn1` it was 1.2.
With `Nc1ccc(-c2cc3sc(N4CCC(N5CCCCC5)CC4)nc3cn2)cn1` the figure was 0.9; with `COc1cc(-c2cc3sc(N4CCC(N5CCCCC5)CC4)nc3cn2)ccn1`, 1.6.
Take `CC(C)N1CCN(C(=O)N2CCC(C(=O)OC(C)(C)C)CC2)CC1`: the logD was 0.6.
In the case of `O=c1c2ccccc2nc(-c2ccc(OCCCN3CCCCC3)cc2)n1Cc1ccccc1` it was 3.8; in that of `C[C@@H]1CCCN1CCc1ccc(-c2ccc(S(=O)(=O)NC3CCC3)cc2)cc1`, 2.9; in that of `N#Cc1ccc(OC2CNC(C(=O)N3CCCN(C4CCC4)CC3)C2)cc1` (configuration not stated), -0.2.
With `Cn1c(-c2ccc(OC3CCN(C4CCCC4)CC3)cc2)nc2ccccc2c1=O` the figure was 2.6; with `Fc1cc(-c2cnc3nc(N4CCC(N5CCCCC5)CC4)sc3c2)ccn1`, 1.5; with `Cc1nc(-c2ccccn2)sc1-c1ccc2cc(CCN3CCC[C@H]3C)ccc2n1`, 3.9.
In the case of `Cc1nc(-c2cccs2)sc1-c1ccc2cc(CCN3CCC[C@H]3C)ccc2n1` it was 4.6.
In the case of `CCCNS(=O)(=O)c1ccc(-c2ccc(CCN3CCC[C@H]3C)cc2)cc1`, the logD came to 2.8.
In the case of `Cc1nc(N2CCCC2)ncc1-c1ccc2cc(CCN3CCC[C@H]3C)ccc2n1` it was 2.7; in that of `C[C@@H]1CCCN1CCc1ccc2nc(-c3csc(-c4cc(Cl)nc(Cl)c4)n3)ccc2c1`, 5.
With `c1csc(-c2ccc(OCCCN3CCCCC3)cc2)c1` the figure was 2.8.
As to `CC1COCC(C)N1S(=O)(=O)c1ccc(-c2ccc(CCN3CCC[C@H]3C)cc2)cc1` (some centres not stated), the log distribution coefficient (logD) came to 2.6.
In the case of `CC(=O)Nc1ccc(-c2cc3sc(N4CCC(N5CCCCC5)CC4)nc3cn2)cn1` it was 0.8; in that of `C[C@@H]1CCCN1CCc1cc2cc(-c3ccc(C#N)cc3)ccc2o1`, 3.2.
In the case of `CC(C)N1CCN(C(=O)N2CCC(C(=O)N3CC4CCC(CC4)C3)CC2)CC1` it was 0.9; in that of `Oc1ccc(-c2cc3sc(N4CCC(N5CCCCC5)CC4)nc3cn2)cn1`, 1.4; in that of `Cn1c(-c2ccc(OC3CCN(C4CCC4)CC3)cc2)nc2c(C(F)(F)F)cccc2c1=O`, 3.1.
As for `Cc1cc(-c2nc(-c3ccc4cc(CCN5CCC[C@H]5C)ccc4n3)cs2)no1`, the logD stood at 3.5.
The compound `c1cc(C2CCCCO2)ccc1OCCCN1CCCCC1` (configuration not stated) displayed a logD of 2.1.
In the case of `Cc1nc2c(C(F)(F)F)cccc2c(=O)n1-c1ccc(OCCCN2CCCC2)cc1` it was 2.6; in that of `COc1cccc2c1OC(c1ccc(OCCCN3CCC[C@H](C)C3)cc1)C(C)S2(=O)=O` (some centres not stated), 3.3.
With `Cc1cccc2c(=O)n(C)c(-c3ccc(OC4CCN(C5CCC5)CC4)cc3)nc12`, the logD stood at 2.7.
With `O=C(C1CC(Oc2ccc(F)cc2)CN1)N1CCCN(C2CCCC2)CC1` (configuration not stated) the figure was 0.9.
With `Nc1cnc(-c2cnc3nc(N4CCC(N5CCCCC5)CC4)sc3c2)cn1` the figure was -0.1; with `O=C(N1CCN(C2CCCC2)CC1)N1Cc2ccccc2C1`, 1.1; with `C[C@H]1Sc2ccccc2O[C@@H]1c1ccc(OCCCN2CCCC2)cc1`, 3.3.
In the case of `Cc1nc(-c2nc(-c3ccc4cc(CCN5CCC[C@H]5C)ccc4n3)cs2)cs1` it was 3.6; in that of `CCOC(=O)c1ccc(-c2ccc(OCCCN3CCCCC3)cc2)cc1`, 3.1; in that of `COCCNS(=O)(=O)c1ccc(-c2ccc(CCN3CCC[C@H]3C)cc2)cc1`, 1.8.
Consider `C[C@@H]1CCCN1CCc1ccc2nc(-c3cnc4c(c3)OCO4)ccc2c1`, for which the pH-dependent lipophilicity (logD) was 2.8.
In the case of `COC(=O)c1cc(-c2ccc3cc(CCN4CCC[C@H]4C)ccc3n2)on1` it was 2.7.
In the case of `CC(C)N1CCN(C(=O)N2CCC(c3ccccc3)CC2)CC1` it was 1.6; in that of `O=c1c2ccccc2nc(-c2ccc(OCCCN3CCCCC3)cc2)n1-c1ccccc1`, 3.8; in that of `COc1ncc(-c2ccc3cc(CCN4CCC[C@H]4C)ccc3n2)cn1`, 2.4.
As to `CC1CCCN1CCc1ccc2nc(-c3cccs3)ccc2c1` (configuration not stated), the log distribution coefficient (logD) stood at 3.6.
For the compound `Cc1onc(-c2ccccc2)c1-c1ccc2cc(CCN3CCC[C@H]3C)ccc2n1`, the logD was 4.2.
With `CN(C)C1CCC(c2ccc(OCCCN3CCCCC3)cc2)CC1` (configuration not stated) the figure was 1.4; with `c1ncc(-c2cnc3nc(N4CCC(N5CCCCC5)CC4)sc3c2)cn1`, 0.3.

What is called logD is the decadic logarithm of the distribution of all forms, ionised or not, between an organic phase and buffer at a given pH.

The values are drawn from ChEMBL document CHEMBL1821550 (Bioorg Med Chem Lett, 2011).
